Results published in ChEMBL document CHEMBL1201862, “PubChem BioAssay data set” (2004).
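Compound exposure: 48 hours, 5 concentrations, 96-well plates. GI50 is the concentration that inhibits growth by half.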 Activity calls are given as the source filed them. Cut-off read from the data, not from the text of the source: active = GI50 up to about 1.1 µM and inactive = higher.

Assays:
Test in all cases: DTP human tumour cell line panel, 48 h
COLO 205 = tested on: COLO 205
PC-3 = tested on: PC-3
SK-MEL-2 = tested on: SK-MEL-2
NCI-H226 = tested on: NCI-H226
SW-620 = tested on: SW-620
MDA-N = tested on: MDA-N
OVCAR-4 = tested on: OVCAR-4
EKVX = tested on: EKVX
NCI-H522 = tested on: NCI-H522
SF-295 = tested on: SF-295
UO-31 = tested on: UO-31
NCI/ADR-RES = tested on: NCI/ADR-RES
UACC-62 = tested on: UACC-62
SF-539 = tested on: SF-539
A549 = tested on: A549
KM12 = tested on: KM12
K562 = tested on: K562
RPMI-8226 = tested on: RPMI-8226
Malme-3M = tested on: Malme-3M
MOLT-4 = tested on: MOLT-4
Hs-578T = tested on: Hs-578T
BT-549 = tested on: BT-549
HOP-62 = tested on: HOP-62
CCRF-CEM = tested on: CCRF-CEM
SK-OV-3 = tested on: SK-OV-3
786-0 = tested on: 786-0
OVCAR-8 = tested on: OVCAR-8
HCC 2998 = tested on: HCC 2998
RXF 393 = tested on: RXF 393
HCT-116 = tested on: HCT-116
UACC-257 = tested on: UACC-257
HOP-92 = tested on: HOP-92
NCI-H23 = tested on: NCI-H23
T47D = tested on: T47D
HT-29 = tested on: HT-29
MCF7 = tested on: MCF7
HCT-15 = tested on: HCT-15
SN12C = tested on: SN12C
U-251 = tested on: U-251
SF-268 = tested on: SF-268
SNB-19 = tested on: SNB-19
CAKI-1 = tested on: CAKI-1
SK-MEL-5 = tested on: SK-MEL-5
TK-10 = tested on: TK-10
LOX IMVI = tested on: LOX IMVI
NCI-H460 = tested on: NCI-H460
OVCAR-5 = tested on: OVCAR-5
MDA-MB-231 = tested on: MDA-MB-231
IGROV-1 = tested on: IGROV-1
SR = tested on: SR
A498 = tested on: A498
ACHN = tested on: ACHN
DU-145 = tested on: DU-145
MDA-MB-435 = tested on: MDA-MB-435
SNB-75 = tested on: SNB-75
SK-MEL-28 = tested on: SK-MEL-28
M14 = tested on: M14
OVCAR-3 = tested on: OVCAR-3
HL-60 = tested on: HL-60

`O=c1[nH]c(=O)n(C2OC(CO)C(O)C2O)c2ncc(-c3ccc(-c4ccccc4)cc3)nc12` (configuration not stated) was tested, and the GI50 (COLO 205) was > 20 µM (inactive), the GI50 (PC-3) was > 20 µM (inactive) and the GI50 (SK-MEL-2) was > 20 µM (inactive). The GI50 (NCI-H226) was > 20 µM (inactive), the GI50 (SW-620) was > 20 µM (inactive) and the GI50 (MDA-N) was > 20 µM (inactive). For the same compound, the GI50 (OVCAR-4) was > 20 µM (inactive), the GI50 (EKVX) was > 20 µM (inactive) and the GI50 (NCI-H522) was > 20 µM (inactive). For the same compound, the GI50 (SF-295) was > 20 µM (inactive), the GI50 (UO-31) was > 20 µM (inactive) and the GI50 (NCI/ADR-RES) was > 20 µM (inactive). The GI50 (UACC-62) was > 20 µM (inactive), the GI50 (SF-539) was > 20 µM (inactive) and the GI50 (A549) was > 20 µM (inactive). The GI50 (KM12) was > 20 µM (inactive), the GI50 (K562) was > 20 µM (inactive) and the GI50 (RPMI-8226) was > 20 µM (inactive). The GI50 (Malme-3M) was > 20 µM (inactive), the GI50 (MOLT-4) was > 20 µM (inactive) and the GI50 (Hs-578T) was > 20 µM (inactive). For the same compound, the GI50 (BT-549) was > 20 µM (inactive), the GI50 (HOP-62) was > 20 µM (inactive) and the GI50 (CCRF-CEM) was > 20 µM (inactive). The GI50 (SK-OV-3) was > 20 µM (inactive), the GI50 (786-0) was > 20 µM (inactive) and the GI50 (OVCAR-8) was > 20 µM (inactive). For the same compound, the GI50 (HCC 2998) was > 20 µM (inactive), the GI50 (RXF 393) was > 20 µM (inactive) and the GI50 (HCT-116) was > 20 µM (inactive). For the same compound, the GI50 (UACC-257) was > 20 µM (inactive), the GI50 (HOP-92) was > 20 µM (inactive) and the GI50 (NCI-H23) was > 20 µM (inactive). The GI50 (T47D) was > 20 µM (inactive), the GI50 (HT-29) was > 20 µM (inactive) and the GI50 (MCF7) was > 20 µM (inactive). The GI50 (HCT-15) was greater than 20 µM, the GI50 (SN12C) was > 20 µM (inactive) and the GI50 (U-251) was > 20 µM (inactive). For the same compound, the GI50 (SF-268) was > 20 µM (inactive), the GI50 (SNB-19) was > 20 µM (inactive) and the GI50 (CAKI-1) was > 20 µM (inactive). The GI50 (SK-MEL-5) was > 20 µM (inactive), the GI50 (TK-10) was > 20 µM (inactive) and the GI50 (LOX IMVI) was > 20 µM (inactive). For the same compound, the GI50 (NCI-H460) was > 20 µM (inactive), the GI50 (OVCAR-5) was > 20 µM (inactive) and the GI50 (MDA-MB-231) was > 20 µM (inactive). The GI50 (IGROV-1) was > 20 µM (inactive), the GI50 (SR) was > 20 µM (inactive) and the GI50 (A498) was > 20 µM (inactive). The GI50 (ACHN) was > 20 µM (inactive), the GI50 (DU-145) was > 20 µM (inactive) and the GI50 (MDA-MB-435) was > 20 µM (inactive). The GI50 (SNB-75) was > 20 µM (inactive).
`N#CC1=C(C#N)/C(=C(\C#N)C(C#N)C#N)N=C1N` was tested, and the GI50 (COLO 205) was 26.9 µM (inactive), the GI50 (PC-3) was 28.7 µM (inactive) and the GI50 (SK-MEL-2) was 14.7 µM (inactive). The GI50 (NCI-H226) was 30 µM (inactive), the GI50 (SW-620) was 28.5 µM (inactive) and the GI50 (MDA-N) was 15.4 µM (inactive). For the same compound, the GI50 (OVCAR-4) was 28.2 µM (inactive), the GI50 (EKVX) was 43.9 µM (inactive) and the GI50 (NCI-H522) was 13.8 µM (inactive). For the same compound, the GI50 (SF-295) was 31.2 µM (inactive), the GI50 (UO-31) was 35.5 µM (inactive) and the GI50 (SK-MEL-28) was 21.1 µM (inactive). For the same compound, the GI50 (NCI/ADR-RES) was 50.8 µM (inactive), the GI50 (UACC-62) was 15.1 µM (inactive) and the GI50 (SF-539) was 22.4 µM (inactive). For the same compound, the GI50 (A549) was 21.4 µM (inactive), the GI50 (KM12) was 64.4 µM (inactive) and the GI50 (K562) was 31.5 µM (inactive). The GI50 (RPMI-8226) was 32.6 µM (inactive), the GI50 (Malme-3M) was 17.1 µM (inactive) and the GI50 (MOLT-4) was 13.4 µM (inactive). The GI50 (Hs-578T) was 28.2 µM (inactive), the GI50 (BT-549) was 24.4 µM (inactive) and the GI50 (HOP-62) was 26.7 µM (inactive). For the same compound, the GI50 (CCRF-CEM) was 8.07 µM (inactive), the GI50 (SK-OV-3) was 57.9 µM (inactive) and the GI50 (786-0) was 39.4 µM (inactive). For the same compound, the GI50 (OVCAR-8) was 52 µM (inactive), the GI50 (HCC 2998) was 33.4 µM (inactive) and the GI50 (RXF 393) was 31.9 µM (inactive). For the same compound, the GI50 (HCT-116) was 27.4 µM (inactive), the GI50 (UACC-257) was 19.6 µM (inactive) and the GI50 (HOP-92) was 28.2 µM (inactive). For the same compound, the GI50 (NCI-H23) was 32.1 µM (inactive), the GI50 (T47D) was > 100 µM (inactive) and the GI50 (HT-29) was 23.5 µM (inactive). For the same compound, the GI50 (MCF7) was 45.8 µM (inactive), the GI50 (HCT-15) was 22.6 µM and the GI50 (SN12C) was 49.4 µM (inactive). The GI50 (U-251) was 35.6 µM (inactive), the GI50 (SF-268) was 32.7 µM (inactive) and the GI50 (SNB-19) was 51.9 µM (inactive). For the same compound, the GI50 (CAKI-1) was 46.2 µM (inactive), the GI50 (SK-MEL-5) was 17.3 µM (inactive) and the GI50 (TK-10) was > 32.6 µM (inactive). The GI50 (LOX IMVI) was 19.1 µM (inactive), the GI50 (NCI-H460) was 28.6 µM (inactive) and the GI50 (OVCAR-5) was 33.5 µM (inactive). For the same compound, the GI50 (M14) was 15.6 µM (inactive), the GI50 (MDA-MB-231) was 91.4 µM (inactive) and the GI50 (IGROV-1) was 50.1 µM (inactive). The GI50 (SR) was 25.2 µM (inactive), the GI50 (OVCAR-3) was 34.5 µM (inactive) and the GI50 (A498) was 25.9 µM (inactive). For the same compound, the GI50 (ACHN) was 33.3 µM (inactive), the GI50 (DU-145) was 38.9 µM (inactive) and the GI50 (MDA-MB-435) was 16.9 µM (inactive). For the same compound, the GI50 (SNB-75) was 41.8 µM (inactive).
For `CC(NS(C)(=O)=O)c1ccccc1` (configuration not stated), the GI50 (COLO 205) was > 100 µM (inactive), the GI50 (PC-3) was > 100 µM (inactive) and the GI50 (SK-MEL-2) was > 100 µM (inactive). For the same compound, the GI50 (NCI-H226) was > 100 µM (inactive), the GI50 (SW-620) was > 100 µM (inactive) and the GI50 (MDA-N) was > 100 µM (inactive). The GI50 (OVCAR-4) was > 100 µM (inactive), the GI50 (NCI-H522) was > 100 µM (inactive) and the GI50 (SF-295) was > 100 µM (inactive). The GI50 (UO-31) was > 100 µM (inactive), the GI50 (SK-MEL-28) was > 100 µM (inactive) and the GI50 (NCI/ADR-RES) was > 100 µM (inactive). The GI50 (UACC-62) was > 100 µM (inactive), the GI50 (SF-539) was > 100 µM (inactive) and the GI50 (A549) was > 100 µM (inactive). For the same compound, the GI50 (KM12) was > 100 µM (inactive), the GI50 (K562) was > 100 µM (inactive) and the GI50 (RPMI-8226) was > 100 µM (inactive). For the same compound, the GI50 (Malme-3M) was > 100 µM (inactive), the GI50 (MOLT-4) was > 100 µM (inactive) and the GI50 (Hs-578T) was > 100 µM (inactive). For the same compound, the GI50 (HL-60) was > 100 µM (inactive), the GI50 (BT-549) was > 100 µM (inactive) and the GI50 (HOP-62) was > 100 µM (inactive). For the same compound, the GI50 (CCRF-CEM) was > 100 µM (inactive), the GI50 (SK-OV-3) was > 10 µM (inactive) and the GI50 (786-0) was > 100 µM (inactive). For the same compound, the GI50 (OVCAR-8) was > 100 µM (inactive), the GI50 (HCC 2998) was > 100 µM (inactive) and the GI50 (RXF 393) was > 100 µM (inactive). The GI50 (HCT-116) was > 100 µM (inactive), the GI50 (UACC-257) was > 100 µM (inactive) and the GI50 (NCI-H23) was > 100 µM (inactive). For the same compound, the GI50 (T47D) was > 100 µM (inactive), the GI50 (HT-29) was > 100 µM (inactive) and the GI50 (MCF7) was > 100 µM (inactive). For the same compound, the GI50 (HCT-15) was greater than 100 µM, the GI50 (SN12C) was > 100 µM (inactive) and the GI50 (U-251) was > 100 µM (inactive). The GI50 (SNB-19) was > 100 µM (inactive), the GI50 (CAKI-1) was > 100 µM (inactive) and the GI50 (SK-MEL-5) was > 100 µM (inactive). The GI50 (TK-10) was > 100 µM (inactive), the GI50 (LOX IMVI) was > 100 µM (inactive) and the GI50 (NCI-H460) was > 100 µM (inactive). The GI50 (OVCAR-5) was > 100 µM (inactive), the GI50 (M14) was > 100 µM (inactive) and the GI50 (MDA-MB-231) was > 100 µM (inactive). The GI50 (IGROV-1) was > 100 µM (inactive), the GI50 (SR) was > 100 µM (inactive) and the GI50 (OVCAR-3) was > 100 µM (inactive). The GI50 (DU-145) was > 100 µM (inactive), the GI50 (MDA-MB-435) was > 100 µM (inactive) and the GI50 (SNB-75) was > 100 µM (inactive).
